According to ChEMBL document CHEMBL5291721, “A preclinical secondary pharmacology resource illuminates target-adverse drug reaction associations of marketed drugs” (Nat Commun, 2023):

What was measured:
[1] = target: T1, Thromboxane A2 receptor (Homo sapiens, UniProt P21731); assay type: functional, cell-based
T1 sequence (P21731 whole entry): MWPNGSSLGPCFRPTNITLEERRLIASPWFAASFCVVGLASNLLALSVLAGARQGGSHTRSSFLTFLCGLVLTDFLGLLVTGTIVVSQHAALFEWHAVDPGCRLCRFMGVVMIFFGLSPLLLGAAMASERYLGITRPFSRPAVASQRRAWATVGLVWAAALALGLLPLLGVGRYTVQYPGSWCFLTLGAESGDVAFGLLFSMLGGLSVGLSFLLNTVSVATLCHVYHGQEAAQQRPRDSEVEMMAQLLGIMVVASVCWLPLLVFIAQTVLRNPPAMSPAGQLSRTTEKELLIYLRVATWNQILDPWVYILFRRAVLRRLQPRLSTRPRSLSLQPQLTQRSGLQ

[2] = target: Voltage-gated inwardly rectifying potassium channel KCNH2 (Homo sapiens, UniProt Q12809); assay type: functional
[3] = target: Histamine H3 receptor (Homo sapiens, UniProt Q9Y5N1)
[4] = target: Bile salt export pump (Homo sapiens, UniProt O95342); assay type: functional
[5] = target: D(3) dopamine receptor (Homo sapiens, UniProt P35462)
[6] = target: cGMP-inhibited 3',5'-cyclic phosphodiesterase 3A (Homo sapiens, UniProt Q14432); assay type: functional
[7] = target: T2, Prostaglandin G/H synthase 1 (Homo sapiens, UniProt P23219); assay type: functional
[8] = target: Prothrombin (Homo sapiens, UniProt P00734); assay type: functional
[9] = target: T3, Amine oxidase [flavin-containing] A (Homo sapiens, UniProt P21397); assay type: functional
T3 sequence (P21397 whole entry): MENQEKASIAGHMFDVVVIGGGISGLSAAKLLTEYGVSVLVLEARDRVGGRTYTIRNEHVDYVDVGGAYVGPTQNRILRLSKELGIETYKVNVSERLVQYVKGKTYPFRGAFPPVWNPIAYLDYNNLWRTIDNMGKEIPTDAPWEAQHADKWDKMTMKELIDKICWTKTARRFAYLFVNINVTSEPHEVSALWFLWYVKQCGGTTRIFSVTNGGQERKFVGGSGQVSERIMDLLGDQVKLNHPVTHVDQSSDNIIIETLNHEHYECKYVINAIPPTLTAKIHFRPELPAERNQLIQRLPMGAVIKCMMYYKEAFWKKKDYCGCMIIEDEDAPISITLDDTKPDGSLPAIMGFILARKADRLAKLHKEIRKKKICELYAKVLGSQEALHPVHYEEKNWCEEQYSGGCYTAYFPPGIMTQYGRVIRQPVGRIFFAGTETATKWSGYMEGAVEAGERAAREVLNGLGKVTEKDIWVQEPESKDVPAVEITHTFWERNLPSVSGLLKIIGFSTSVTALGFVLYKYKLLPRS

[10] = target: T1, Thromboxane A2 receptor; assay type: functional, cell-based; remark: listed apart in the source
[11] = target: T4, 5-hydroxytryptamine receptor 1A (Homo sapiens, UniProt P08908)
T4 sequence (P08908 whole entry): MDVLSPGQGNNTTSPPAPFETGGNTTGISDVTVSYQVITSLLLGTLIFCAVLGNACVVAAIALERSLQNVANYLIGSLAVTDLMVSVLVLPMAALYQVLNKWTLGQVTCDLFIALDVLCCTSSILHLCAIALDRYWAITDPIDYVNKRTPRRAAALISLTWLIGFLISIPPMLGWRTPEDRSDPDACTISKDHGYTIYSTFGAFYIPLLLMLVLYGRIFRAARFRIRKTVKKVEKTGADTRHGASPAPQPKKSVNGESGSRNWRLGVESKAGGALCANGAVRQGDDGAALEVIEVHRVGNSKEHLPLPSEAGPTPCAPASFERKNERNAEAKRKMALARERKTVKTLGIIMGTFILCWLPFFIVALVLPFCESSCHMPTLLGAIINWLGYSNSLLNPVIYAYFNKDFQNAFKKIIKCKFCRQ

[12] = target: Mu-type opioid receptor (Homo sapiens, UniProt P35372)
[13] = target: Acetylcholinesterase (Homo sapiens, UniProt P22303); assay type: functional
[14] = target: Sodium-dependent dopamine transporter (Homo sapiens, UniProt Q01959)
[15] = target: Sodium-dependent noradrenaline transporter (Homo sapiens, UniProt P23975)
[16] = target: T5, Muscarinic acetylcholine receptor M2 (Homo sapiens, UniProt P08172)
T5 sequence (P08172 whole entry): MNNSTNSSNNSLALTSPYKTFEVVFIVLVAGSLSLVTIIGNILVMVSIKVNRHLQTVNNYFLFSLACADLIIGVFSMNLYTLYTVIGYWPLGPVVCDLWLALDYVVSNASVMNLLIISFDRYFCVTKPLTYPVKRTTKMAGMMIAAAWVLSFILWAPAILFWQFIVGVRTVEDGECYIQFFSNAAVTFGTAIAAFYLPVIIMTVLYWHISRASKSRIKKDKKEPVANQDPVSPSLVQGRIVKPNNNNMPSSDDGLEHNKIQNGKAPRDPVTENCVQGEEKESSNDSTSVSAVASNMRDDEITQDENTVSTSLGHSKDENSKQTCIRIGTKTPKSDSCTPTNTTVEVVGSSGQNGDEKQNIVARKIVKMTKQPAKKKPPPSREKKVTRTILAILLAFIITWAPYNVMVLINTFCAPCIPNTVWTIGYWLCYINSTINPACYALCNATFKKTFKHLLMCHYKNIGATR

[17] = target: 5-hydroxytryptamine receptor 2B (Homo sapiens, UniProt P41595); assay type: functional, cell-based
[18] = target: T2, Prostaglandin G/H synthase 1; assay type: functional; remark: listed apart in the source
[19] = target: D(1A) dopamine receptor (Homo sapiens, UniProt P21728)
Note: assay procedure not described here.

Histamine H3 receptor, sequence (Q9Y5N1 whole entry): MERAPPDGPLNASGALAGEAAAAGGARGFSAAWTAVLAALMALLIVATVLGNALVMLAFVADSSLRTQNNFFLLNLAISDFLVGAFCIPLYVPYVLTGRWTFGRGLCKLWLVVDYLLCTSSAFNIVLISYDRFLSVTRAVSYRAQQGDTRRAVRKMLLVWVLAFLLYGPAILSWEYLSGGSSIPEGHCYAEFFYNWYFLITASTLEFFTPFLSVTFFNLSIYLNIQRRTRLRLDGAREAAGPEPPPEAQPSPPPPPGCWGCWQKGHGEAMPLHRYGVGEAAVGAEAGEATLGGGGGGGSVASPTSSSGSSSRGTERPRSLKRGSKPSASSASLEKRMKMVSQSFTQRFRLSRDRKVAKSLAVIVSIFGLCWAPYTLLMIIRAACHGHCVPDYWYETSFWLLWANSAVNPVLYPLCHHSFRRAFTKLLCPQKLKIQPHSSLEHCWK
cGMP-inhibited 3',5'-cyclic phosphodiesterase 3A, sequence (Q14432 whole entry): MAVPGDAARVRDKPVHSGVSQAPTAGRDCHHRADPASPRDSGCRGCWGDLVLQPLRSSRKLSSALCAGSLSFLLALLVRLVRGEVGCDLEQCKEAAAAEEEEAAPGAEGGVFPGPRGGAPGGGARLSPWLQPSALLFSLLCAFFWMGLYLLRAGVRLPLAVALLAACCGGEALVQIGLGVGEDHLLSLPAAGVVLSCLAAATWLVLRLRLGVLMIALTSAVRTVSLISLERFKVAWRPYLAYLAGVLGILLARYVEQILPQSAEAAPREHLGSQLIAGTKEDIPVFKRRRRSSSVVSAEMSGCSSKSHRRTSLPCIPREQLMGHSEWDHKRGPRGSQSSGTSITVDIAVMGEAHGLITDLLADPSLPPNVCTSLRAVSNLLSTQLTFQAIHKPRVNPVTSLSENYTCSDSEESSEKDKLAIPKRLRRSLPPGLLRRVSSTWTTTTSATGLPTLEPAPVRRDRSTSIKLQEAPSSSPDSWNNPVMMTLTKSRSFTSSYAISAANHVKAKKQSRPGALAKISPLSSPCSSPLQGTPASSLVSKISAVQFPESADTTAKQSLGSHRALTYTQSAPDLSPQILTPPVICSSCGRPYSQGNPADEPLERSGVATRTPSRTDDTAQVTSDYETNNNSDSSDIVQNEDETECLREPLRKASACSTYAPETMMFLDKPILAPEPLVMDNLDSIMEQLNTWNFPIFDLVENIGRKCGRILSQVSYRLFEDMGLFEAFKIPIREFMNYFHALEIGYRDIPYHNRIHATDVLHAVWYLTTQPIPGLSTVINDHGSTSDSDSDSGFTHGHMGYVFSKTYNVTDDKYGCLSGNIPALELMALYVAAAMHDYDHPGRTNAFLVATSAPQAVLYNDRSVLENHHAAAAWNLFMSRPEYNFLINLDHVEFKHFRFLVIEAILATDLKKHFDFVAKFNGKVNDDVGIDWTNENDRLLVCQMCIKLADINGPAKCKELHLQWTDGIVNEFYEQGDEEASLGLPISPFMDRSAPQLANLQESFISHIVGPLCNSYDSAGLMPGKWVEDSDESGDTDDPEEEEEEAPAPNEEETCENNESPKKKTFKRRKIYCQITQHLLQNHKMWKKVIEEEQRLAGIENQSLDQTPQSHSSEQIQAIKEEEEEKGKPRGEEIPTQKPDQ
Voltage-gated inwardly rectifying potassium channel KCNH2, sequence (Q12809 whole entry): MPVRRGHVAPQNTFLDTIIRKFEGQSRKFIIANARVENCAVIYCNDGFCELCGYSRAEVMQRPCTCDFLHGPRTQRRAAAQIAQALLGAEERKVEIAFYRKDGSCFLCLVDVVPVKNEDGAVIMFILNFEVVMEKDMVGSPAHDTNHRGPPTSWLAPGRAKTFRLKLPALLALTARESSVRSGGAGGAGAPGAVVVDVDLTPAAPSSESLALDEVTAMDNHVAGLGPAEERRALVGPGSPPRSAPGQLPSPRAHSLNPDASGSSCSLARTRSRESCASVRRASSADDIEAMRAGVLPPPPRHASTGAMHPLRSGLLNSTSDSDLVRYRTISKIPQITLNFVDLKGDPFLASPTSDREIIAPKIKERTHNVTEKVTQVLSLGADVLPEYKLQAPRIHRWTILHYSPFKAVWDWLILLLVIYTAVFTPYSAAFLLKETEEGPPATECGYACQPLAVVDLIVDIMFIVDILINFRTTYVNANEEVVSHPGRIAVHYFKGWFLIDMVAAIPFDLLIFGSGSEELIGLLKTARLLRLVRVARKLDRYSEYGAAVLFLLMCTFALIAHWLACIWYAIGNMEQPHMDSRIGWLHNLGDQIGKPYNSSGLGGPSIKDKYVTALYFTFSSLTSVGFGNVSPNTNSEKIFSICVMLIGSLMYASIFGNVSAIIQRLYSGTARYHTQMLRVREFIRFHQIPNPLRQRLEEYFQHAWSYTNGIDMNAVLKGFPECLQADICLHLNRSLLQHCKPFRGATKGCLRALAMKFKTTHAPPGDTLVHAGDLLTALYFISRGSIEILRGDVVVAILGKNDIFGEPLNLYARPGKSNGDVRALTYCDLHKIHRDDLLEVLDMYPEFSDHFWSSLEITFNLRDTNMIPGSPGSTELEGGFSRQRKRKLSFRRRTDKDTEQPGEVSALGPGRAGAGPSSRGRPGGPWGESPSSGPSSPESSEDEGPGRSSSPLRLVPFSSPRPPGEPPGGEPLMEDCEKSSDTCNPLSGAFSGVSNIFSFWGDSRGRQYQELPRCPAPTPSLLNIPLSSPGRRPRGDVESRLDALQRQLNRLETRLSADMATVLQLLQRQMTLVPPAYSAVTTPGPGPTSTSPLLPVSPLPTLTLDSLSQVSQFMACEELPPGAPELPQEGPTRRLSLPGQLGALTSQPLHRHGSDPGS
D(1A) dopamine receptor, sequence (P21728 whole entry): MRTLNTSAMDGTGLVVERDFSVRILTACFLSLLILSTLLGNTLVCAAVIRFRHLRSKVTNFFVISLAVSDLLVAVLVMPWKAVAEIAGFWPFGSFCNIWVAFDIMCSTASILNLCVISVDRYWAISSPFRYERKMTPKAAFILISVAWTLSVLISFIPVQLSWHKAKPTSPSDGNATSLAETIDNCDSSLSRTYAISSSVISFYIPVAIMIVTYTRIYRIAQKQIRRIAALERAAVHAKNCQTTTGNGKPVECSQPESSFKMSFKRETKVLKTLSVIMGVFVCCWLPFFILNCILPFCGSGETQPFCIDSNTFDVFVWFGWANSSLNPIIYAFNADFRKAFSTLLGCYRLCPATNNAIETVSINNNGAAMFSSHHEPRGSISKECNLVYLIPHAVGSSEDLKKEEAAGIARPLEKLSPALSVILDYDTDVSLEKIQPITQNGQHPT
5-hydroxytryptamine receptor 2B, sequence (P41595 whole entry): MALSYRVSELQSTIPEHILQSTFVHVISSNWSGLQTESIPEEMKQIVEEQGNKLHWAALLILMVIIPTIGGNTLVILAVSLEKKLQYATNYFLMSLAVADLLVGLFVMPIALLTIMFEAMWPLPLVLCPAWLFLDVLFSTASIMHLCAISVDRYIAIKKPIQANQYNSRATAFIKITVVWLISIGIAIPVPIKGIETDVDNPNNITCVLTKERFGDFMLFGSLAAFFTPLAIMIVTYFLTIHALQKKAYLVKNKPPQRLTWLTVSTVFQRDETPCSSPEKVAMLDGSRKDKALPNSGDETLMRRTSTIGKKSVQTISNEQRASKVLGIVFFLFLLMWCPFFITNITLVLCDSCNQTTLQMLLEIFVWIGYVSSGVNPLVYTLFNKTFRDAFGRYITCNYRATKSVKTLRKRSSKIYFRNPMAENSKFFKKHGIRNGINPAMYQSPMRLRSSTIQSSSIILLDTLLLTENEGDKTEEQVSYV
Sodium-dependent noradrenaline transporter, sequence (P23975 whole entry): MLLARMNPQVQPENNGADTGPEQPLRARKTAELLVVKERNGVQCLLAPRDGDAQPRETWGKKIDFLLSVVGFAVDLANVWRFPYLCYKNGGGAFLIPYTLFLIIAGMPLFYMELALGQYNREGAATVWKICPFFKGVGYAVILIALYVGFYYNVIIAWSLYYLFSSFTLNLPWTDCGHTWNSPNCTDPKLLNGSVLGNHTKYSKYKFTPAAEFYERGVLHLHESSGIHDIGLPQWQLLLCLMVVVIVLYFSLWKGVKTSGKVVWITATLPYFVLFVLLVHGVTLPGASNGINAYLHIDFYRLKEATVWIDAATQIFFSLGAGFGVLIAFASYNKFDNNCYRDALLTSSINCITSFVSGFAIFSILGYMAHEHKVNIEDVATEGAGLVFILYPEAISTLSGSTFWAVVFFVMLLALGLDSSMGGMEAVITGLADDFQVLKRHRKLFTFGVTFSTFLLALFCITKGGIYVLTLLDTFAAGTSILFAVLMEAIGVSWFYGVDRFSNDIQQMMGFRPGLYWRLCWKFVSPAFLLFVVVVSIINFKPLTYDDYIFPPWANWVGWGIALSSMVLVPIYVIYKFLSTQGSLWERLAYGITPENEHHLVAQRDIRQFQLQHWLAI
D(3) dopamine receptor, sequence (P35462 whole entry): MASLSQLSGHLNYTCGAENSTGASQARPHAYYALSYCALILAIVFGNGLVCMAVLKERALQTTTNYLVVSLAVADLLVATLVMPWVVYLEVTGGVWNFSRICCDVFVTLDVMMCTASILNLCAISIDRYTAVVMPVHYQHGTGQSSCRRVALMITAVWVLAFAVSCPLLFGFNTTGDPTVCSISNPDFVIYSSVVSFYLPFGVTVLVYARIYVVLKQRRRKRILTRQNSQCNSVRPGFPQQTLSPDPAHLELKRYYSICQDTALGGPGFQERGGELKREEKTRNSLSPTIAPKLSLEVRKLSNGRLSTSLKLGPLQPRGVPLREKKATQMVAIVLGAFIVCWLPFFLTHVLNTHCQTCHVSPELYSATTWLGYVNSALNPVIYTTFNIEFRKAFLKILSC

Row | SMILES | AC50 [1] [µM] | AC50 [2] [µM] | AC50 [3] [µM] | AC50 [4] [µM] | AC50 [5] [µM] | AC50 [6] [µM] | AC50 [7] [µM] | AC50 [8] [µM] | AC50 [9] [µM] | AC50 [10] [µM] | AC50 [11] [µM] | AC50 [12] [µM] | AC50 [13] [µM] | AC50 [14] [µM] | AC50 [15] [µM] | AC50 [16] [µM] | AC50 [17] [µM] | AC50 [18] [µM] | AC50 [19] [µM]
1 | Cc1ccccc1C(=O)Nc1ccc(C(=O)N2CCCC(N(C)C)c3ccccc32)cc1 (configuration not stated) [MOZAVAPTAN] | > 30 | > 30 | > 30 | 14 | > 30 | > 30 | > 30 | > 30 | > 30 | > 30 | 5.8 | 2.48 | > 30 | > 30 | > 30 | > 30 | > 30 | > 30 | > 30
2 | CC(C)C[C@H](NC(=O)CNC(=O)c1cc(Cl)ccc1Cl)B(O)O [IXAZOMIB] | > 30 | > 30 | > 30 | > 300 | > 30 | > 30 | > 30 | > 30 | > 30 | > 30 | > 30 | > 30 | > 30 | > 30 | > 30 | > 30 | > 30 | > 30 | > 30
3 | O=C(O)c1cc(/N=N/c2ccc(O)c(C(=O)O)c2)ccc1O [OLSALAZINE] | > 30 | > 30 | > 30 | > 300 | > 30 | > 30 | > 30 | > 30 | > 30 | > 30 | > 30 | > 30 | > 30 | > 30 | > 30 | > 30 | > 30 | > 30 | > 30
4 | OC[C@@H](O)[C@@H](O)[C@H](O)[C@@H](O)CO [SORBITOL] | > 30 | > 30 | > 30 | > 300 | > 30 | > 30 | > 30 | > 30 | > 30 | > 30 | > 30 | > 30 | > 30 | > 30 | > 30 | > 30 | > 30 | > 30 | > 30
5 | CC(C)(O)CNc1nc(Nc2ccnc(C(F)(F)F)c2)nc(-c2cccc(C(F)(F)F)n2)n1 [ENASIDENIB] | 7.09 | > 30 | > 30 | 5.3 | > 30 | > 30 | 14.1 | > 30 | > 30 | > 30 | > 30 | 21.5 | > 30 | > 30 | > 30 | > 30 | > 30 | 9.18 | > 30
6 | C[N+](C)(C)C[C@H](O)CC(=O)[O-] [LEVOCARNITINE] | > 30 | > 30 | > 30 | > 300 | > 30 | > 30 | > 30 | > 30 | > 30 | > 30 | > 30 | > 30 | > 30 | > 30 | > 30 | > 30 | > 30 | > 30 | > 30
7 | COc1cc2nccc(Oc3ccc(NC(=O)C4(C(=O)Nc5ccc(F)cc5)CC4)cc3)c2cc1OC [CABOZANTINIB] | 17.5 | 8.3 | > 30 | 8.8 | > 30 | 27.9 | > 30 | > 30 | 25.4 | > 30 | > 30 | > 30 | > 30 | > 30 | > 30 | 9.32 | > 30 | > 30 | 4.42
8 | C[C@@H]1C[C@H]2[C@@H]3CCC4=CC(=O)C=C[C@]4(C)[C@@]3(Cl)[C@@H](O)C[C@]2(C)[C@@]1(OC(=O)c1ccco1)C(=O)CCl [MOMETASONE FUROATE] | > 30 | > 30 | > 30 | 2.4 | > 30 | > 30 | > 30 | > 30 | > 30 | > 30 | > 30 | > 30 | > 30 | > 30 | > 30 | > 30 | > 30 | 13.7 | > 30
